# Results taken from patent publication US5912230A, “Anti-fungal and anti-bacterial histatin-based peptides” (priority 1998, dated 1999).
# Where two headings read alike, the source gives them in different places. Where no end group is shown, it is not given here.
# Experiments:
# Clostripain [1] = biological target: T1, Clostripain (Hathewaya histolytica, UniProt P09870); experiment: clostripain assay (BAPNA hydrolysis); format: biochemical, Clostridium histolyticum
# T1 construct: purchased Sigma Chemical Corp., St. Louis, Mo
# Description: (§1) Clostripain from Clostridium histolyticum (Sigma Chemical Corp., St. Louis, Mo.) was dissolved in deionized water to a concentration of 1 mg/mL (300 units/mg) and activated with the addition of 10 mmol/L DTT. To measure its hydrolytic activity, clostripain (6 units) was added to […] Hepes buffer, pH 7.5, containing 80 gmol/L BAPNA (benzoyl-arginine-p-nitroanilide), together with 5.6 μmol/L of histatin peptide inhibitor. As controls, assays were performed in the absence of any histatin peptide inhibitor. The activity was monitored continuously at 405 nm using a Molecular Devices VMax microtitre plate reader. The activities were determined from the maximum rates of substrate hydrolysis. Assays were done in duplicate, and the means normalized to the controls.
# [2] = system: C. albicans blastoconidia; settings: for C. albicans: LD50 (μM) for % killing: blastoconidia, 1 h at 37° C., pH 7.4; for C. albicans: % killing at 50 μM dose (scoring): highest response seen used in the scoring; for anti-fungal (fungicidal) activity, in words: C. albicans blastoconidia
# Text: C. albicans is a dimorphic yeast. It can exist in a yeast or blastoconidial form, which upon germination develops into the hyphal or germinated form. While the germinated form is considered to be more invasive, most of the C. albicans isolates harvested from the oral cavities of healthy individuals appear to be in the blastoconidial form. (Arendorf, T. M. et al. (1980), Arch. Oral Biol. 25:1-10; Gow, N.A.R. et al. (1987), Criti. Rev. Microbiol. 15:73-78; Odds, F. C. (1988), Candida and Candidosis, 2nd ed., Bailliere Tindall, London, England). Anti-fungal activity of synthetic histatin 5, histatin-based peptide 113, peptides based on portions of the amino acid sequences of histatin-based peptide 113 and peptides derived from histatin-based peptide 113 with specified amino acid substitutions was measured in assays designed to test the effectiveness of the peptides against the blastoconidia form of Candida (Table 1). These assays, which measure killing of blastoconidia of C. albicans, are described in Xu et al., which is herein incorporated by reference. (Xu, T. et al. (1991), Infect. Immun. 59(8):2549-2554).
# A well-described strain of C. albicans was used in the bioassay. This strain, ATCC 44505, was originally isolated from the human oral cavity. Cultures were stored at 4° C. on Sabouraud dextrose agar plates (Difco Laboratories, Detroit, Mich.) until use. Stationary phase growth cells were obtained following growth at 30° C. for 18 h on Sabouraud dextrose agar plates. Colonies were harvested and suspended in 10 mM potassium phosphate buffer (PPB), pH 7.4.
# To initiate log phase growth, an aliquot of stock C. albicans was suspended in Sabouraud dextrose broth (Difco) and incubated at 30° C. in a shaking water bath. The growth phase was determined by taking aliquots of the culture at one hour intervals to monitor the optical density (O.D.) at 560 nm. […] Log phase cells were harvested and utilized in the blastoconidia killing assay in a manner identical to that described for stationary phase cells. A final concentration of 10^5 cells/ml (either stationary or log phase fungus) was used in all assays.
# The standard suspension buffer utilized in the blastospore killing assay was 0.01M PPB, pH 7.4. An alternate suspension buffer, N-2-hydroxyethylpiperazine-N'-2-ethanesulfonic acids (HEPES; Sigma Chemical Co., St. Louis, Mo.), pH 7.4, can also be utilized.
# a. For the killing of blastoconidia assay, 50 μl aliquots of cells (2×10^5 cells/ml) diluted in suspension buffer were allowed to attach to a polystyrene 96-well micro-titer plate (COSTAR, Cambridge, Mass.) for 15 min at room temperature, and then incubated with an equal volume of a histatin or histatin peptide in suspension buffer for 1 h at 37° C. Controls were carried out in the absence of the histatin or histatin peptide. After incubation, wells were washed three times by centrifugation at 1,000 xg for 5 min and covered with aliquots of molten Sabouraud dextrose broth (Difco) containing 2% agarose (Sigma) at 45° C. The plate was then incubated at 30° C. for 8 h. Under such conditions, live cells will divide and begin to form colonies, while dead cells will remain as single cells. To determine the percentage of blastoconidia killed, a total of 100 single cells and/or colonies were counted under a Nikon inverted microscope at 400× magnification and the extent of killing was calculated using the formula: [1-(number of colonies in treated sample)/(number of colonies in control)]×100%.
# Data were obtained by calculating the mean and standard deviation from triplicate assays.
# Clostripain [3] = biological target: T2, Clostripain (Hathewaya histolytica, UniProt P09870); experiment: clostripain assay (BAPNA hydrolysis); format: biochemical, Clostridium histolyticum; remark: listed apart in the source
# T2 construct: purchased Sigma Chemical Corp., St. Louis, Mo
# T2 sequence (P09870 whole entry, looked up): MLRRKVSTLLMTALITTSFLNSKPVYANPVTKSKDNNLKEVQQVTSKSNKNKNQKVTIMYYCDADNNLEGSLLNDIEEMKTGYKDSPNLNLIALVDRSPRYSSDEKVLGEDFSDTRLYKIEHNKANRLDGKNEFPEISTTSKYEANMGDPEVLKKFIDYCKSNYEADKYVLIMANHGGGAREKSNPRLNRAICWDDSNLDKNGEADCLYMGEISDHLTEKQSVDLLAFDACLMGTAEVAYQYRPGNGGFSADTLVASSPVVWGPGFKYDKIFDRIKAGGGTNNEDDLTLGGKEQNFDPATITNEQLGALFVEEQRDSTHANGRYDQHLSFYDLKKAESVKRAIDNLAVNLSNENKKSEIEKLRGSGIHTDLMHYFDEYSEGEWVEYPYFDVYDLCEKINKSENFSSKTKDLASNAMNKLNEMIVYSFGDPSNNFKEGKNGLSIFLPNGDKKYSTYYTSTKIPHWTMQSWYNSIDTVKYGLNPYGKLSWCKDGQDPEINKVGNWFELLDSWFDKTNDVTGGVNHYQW
# Description: as §1
# [4] = read-out: Clostripain: IC50 (μM) for inhibition of Clostripain
Substance,"clostripain inhibition, in words (Clostripain [1])",IC50 (Clostripain [1]; [4]) [µM],C. albicans: LD50 (μM) for % killing [2] [µM],"anti-fungal activity at pH 4.0, in words ([2]; pH 4.0)","clostripain inhibition, in words (Clostripain [3])",C. albicans: % killing at 50 μM dose (scoring) [2],"anti-fungal (fungicidal) activity, in words [2]",IC50 (Clostripain [1]) [µM]
AKRHHGYKRKFH [peptide 113],clostripain inhibition effects,25,5.8,essentially devoid of anti-fungal activity,,,,
peptide 117: subpeptide of peptide 113 (SEQ ID NO: 19) (KRHHGYKRKFH),,,,,clostripain inhibition effects,++++ (++++80-100%),C. albicans blastoconidia killing,
"His 11: histatin 11 (SEQ ID NO: 11), subpeptide of peptide 113 (KRHHGYKR)",,,,,clostripain inhibition effects,+ (+<20%),,
KRHHGYKRKF [peptide 129],clostripain inhibition effects,19,27,,,,,
AKRHHGYKR [peptide 120],clostripain inhibition effects,,,,,++ (++20-50%),C. albicans blastoconidia killing,> 50
AKRHHGYKRK [peptide 119],clostripain inhibition effects,,,,,++ (++20-50%),C. albicans blastoconidia killing,> 50
AKRHHGYKRKF [peptide 118],clostripain inhibition effects,,,,,++++ (++++80-100%),C. albicans blastoconidia killing,45
